# Reference: patent US8629132B2, “Kinase inhibitors” (Genosco, priority 2009, dated 2014)
# Entries after “also recorded” stand apart in the source; their conditions may differ. Where a name gives a salt, the structure may show the parent alone.
# What was measured:
# [1] = system: TNF-α release in THP-1 cells; assay: SYK dependent TNF-α release assay (IgG stimulation); assay type: cell-based, human; conditions: for inhibition at 0.3 µM / inhibition at 1 µM: Homo sapiens; for percentage inhibition of TNF-α release compared with R406: IgG stimulated release
# Procedure: (§1) Compounds of the present invention are tested for their effects on TNF-α release in human acute monocytic leukimia cell line (THP-1) to illustrate potential efficacy at the cellular level. TNF-α is a cytokine involved in systemic inflammation and is a member of a group of cytokines that stimulate the acute phase reaction. The primary role of TNF-α is in the regulation of immune cells. TNF-α is known to induce apoptotic cell death and inflammation and to inhibit early tumorigenesis and viral replication. Dysregulation and, in particular, overproduction of TNF-α have been implicated in a variety of human diseases, autoimmune disease, inflammation, arthritis and cancer.
# (§2) Production or release of TNF-α is controlled by type of stimulus to which the cell responds. SYK activity is involved in mediating TNF-α production. When stimulated by IgG, cells increase TNF-α production in a SYK dependent manner (i.e., the SYK dependent pathway). However, when stimulated by lipopolysaccharide (LPS), they produce TNF-α in a SYK independent manner.
# Compounds of the invention were tested for their TNF-α release effect on THP-1 cells. For SYK dependent TNF-α release assay (i.e., via IgG stimulation), THP-1 cells derived from human monocytic cells were obtained from the American Type Culture Collection (ATCC, Manassas, Va.). This cell line was maintained with an Roswell Park Memorial Institute (RPMI) medium (GIBCO™) containing 10 fetal bovine serum (FBS; GIBCO™) and 0.05 mM 2-mercaptoethanol. The THP-1 cells were seeded at 1×10^5 cells/100 μL/well into human IgG (10 μg/well, INVITROGENT™)-coated 96 well culture plate, and serially diluted compound was then added. After an 18-hour incubation period at 37° C., supernatants were collected for the determination of the TNF-α level by enzyme-linked immunosorbent assay (ELISA), and the remaining cells were subjected to an MTT (yellow tetrazolium salt) assay to determine the cytotoxic effects of compound.
# [2] = system: TNF-α release in THP-1 cells; assay: SYK independent TNF-α release assay (LPS stimulation); assay type: cell-based; conditions: Homo sapiens, 18-hour incubation
# Procedure: as §1, §2
# For SYK independent TNF-α release assay (i.e., via lipopolysaccharide (LPS)-stimulation), THP-1 cells derived from human monocytic cells were obtained from the American Type Culture Collection (ATCC, Manassas, Va.). This cell line was maintained with an RPMI medium (GIBCO™) containing 10 fetal bovine serum (FBS, GIBCO™) and 0.05 mM 2-mercaptoethanol. The THP-1 cells were seeded at 1×10^5 cells/100 μL/well into 96-well culture plates, and treated with lipopolysaccharide (1 μg/ml), and serially diluted compound was then added. After an 18-hour incubation period at 37° C., supernatants were collected for the determination of the TNF-α level by ELISA, and the remaining cells were subjected to an MTT assay to determine the cytotoxic effects.
# SYK = target: T1, SYK (Homo sapiens, UniProt P43405); assay: Kinase inhibition assay: SYK; assay type: biochemical
# T1 construct: Purified full-length human SYK, ZAP70, PIM1, PYK2; purchased Carna Biosciences
# Procedure: (§3) Compounds of the present invention were tested for their capacity to inhibit a kinase panel which includes, but are not limited to, spleen tyrosine kinase (SYK), zeta-chain-associated protein kinase 70 (ZAP70), PTK2B protein tyrosine kinase 2 (PYK2), focal adhesion kinase (FAK), provirus integration of maloney kinase 1 (PIM1), rearranged during transfection kinase (RET), Fms-like tyrosine kinase 3 (FLT3), Janus kinase 2 (JAK2), and leucine-rich repeat kinase 2 (LRRK2).
# (§4) Inhibition of SYK, ZAP70, PYK2, FAK, PIM1, RET, FLT3, JAK2 and LRRK2 Kinase Activity
# (§5) Compounds of the invention were initially diluted to 10 mM in 100% DMSO (CALBIOCHEM™) for storage and made into kinase buffer solution to create a compound concentration ranging from 1 uM and 10 uM. Serial dilutions of compounds of the invention were dispensed into a 96-well plate (GREINER BIOSCIENCES™) at 6 μL each. Purified full-length human SYK, ZAP70, PIM1, PYK2 and truncated human FAK, RET, FLT3, JAK2, and LRRK2 (CARNA BIOSCIENCES™) were diluted in kinase buffer and added to the compound solutions and pre-incubated for 30 minutes at room temperature (1 hour for PYK2). […] The reaction mixture was incubated for 1 hour (2 hours for PYK2). Following the incubation, the stop solution made with EDTA, water, and Lance detection buffer ([…]™) was added (12μL each) to stop phosphorylation. […] The IC50 value of test compound was calculated at Gradpad Prism 5 unless specified otherwise.
# RET = target: T2, RET (Homo sapiens, UniProt P07949); assay: Kinase inhibition assay: RET; assay type: biochemical
# T2 construct: truncated human FAK, RET, FLT3, JAK2, and LRRK2; purchased Carna Biosciences
# T2 sequence (P07949 658-1114 limits assumed): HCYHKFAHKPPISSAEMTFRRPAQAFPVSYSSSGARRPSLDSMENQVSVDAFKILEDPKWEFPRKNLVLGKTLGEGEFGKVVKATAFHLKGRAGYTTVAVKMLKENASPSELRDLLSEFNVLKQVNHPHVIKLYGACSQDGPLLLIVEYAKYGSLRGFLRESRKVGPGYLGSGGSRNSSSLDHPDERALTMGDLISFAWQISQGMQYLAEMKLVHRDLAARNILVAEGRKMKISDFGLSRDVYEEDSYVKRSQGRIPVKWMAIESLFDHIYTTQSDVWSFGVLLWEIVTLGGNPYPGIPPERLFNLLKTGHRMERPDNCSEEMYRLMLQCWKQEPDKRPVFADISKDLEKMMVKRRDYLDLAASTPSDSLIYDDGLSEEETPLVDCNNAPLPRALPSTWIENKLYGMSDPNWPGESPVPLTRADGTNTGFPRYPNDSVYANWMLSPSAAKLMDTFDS
# Procedure: as §3, §4, §5
# MV4-11 cells = assay: Cell viability assay: FLT3-ITD-positive cells; assay type: cell-based, human; conditions: for IC50: Homo sapiens, MV4-11, 72-hour incubation, read-out: Viability of FLT3-ITD Induced Cancer Cell Line MV-4-11 (IC50 nM)
# Procedure: Compounds of the invention were tested for their effects on inhibition of FLT3-ITD in human acute leukemia cell line (MV4-11). FLT3 is primarily expressed in immature hematopoietic progenitor as well as in mature myeloid cells. It belongs to type III receptor tyrosine kinase (RTK) family including KIT, FMS, and PDGFR. It is activated by binding to FL, which leads to increased kinase activity and activation of downstream signaling pathway including STATS, Ras, and PI3Kinase.
# Compounds of the invention were tested for cell viability effect on MV4-11 cells. For cell viability assay, MV4-11 cells expressing human FLT3-ITD were obtained from the American Type Culture Collection (ATCC, Manassas, Va.). This cell line was maintained with an Roswell Park Memorial Institute (RPMI) medium (HyClone™) containing 10 bovine calf serum (BCS; Hyclone™) supplemented iron. The MV4-11 cells were seeded at 2×10^4 cells in 96-well culture plates, and serially diluted compound was then added. After a 72-hour incubation period at 37° C., cell viability was measured using the ATPLite 1 step assay (Perkin-Elmer™) that is based on the quantification of ATP from viable cells. CellTiter Aqueous assay (Promega™) was also performed in parallel as an orthogonal assay. IC50 values were calculated using nonlinear regression and defined as the concentration needed for a 50 reduction in luminescence or absorbance treated versus untreated control cells (Prism™ Software).
# FLT3 = target: T3, FLT3 (Homo sapiens, UniProt P36888); assay: Kinase inhibition assay: FLT3; assay type: biochemical
# T3 construct: truncated human FAK, RET, FLT3, JAK2, and LRRK2; purchased Carna Biosciences
# T3 sequence (P36888 564-993 limits assumed): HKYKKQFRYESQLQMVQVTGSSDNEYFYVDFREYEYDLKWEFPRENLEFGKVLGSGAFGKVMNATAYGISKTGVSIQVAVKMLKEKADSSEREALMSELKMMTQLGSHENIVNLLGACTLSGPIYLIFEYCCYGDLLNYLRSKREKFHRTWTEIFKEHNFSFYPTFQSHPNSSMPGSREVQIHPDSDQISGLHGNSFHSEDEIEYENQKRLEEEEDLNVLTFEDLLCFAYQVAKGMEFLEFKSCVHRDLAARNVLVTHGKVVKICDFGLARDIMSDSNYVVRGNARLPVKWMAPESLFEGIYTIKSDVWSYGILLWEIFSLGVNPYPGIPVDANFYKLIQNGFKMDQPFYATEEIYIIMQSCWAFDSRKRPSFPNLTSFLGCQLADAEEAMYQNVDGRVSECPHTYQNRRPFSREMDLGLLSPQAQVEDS
# Procedure: as §3, §4, §5
# JAK2 = JAK2 (Homo sapiens, UniProt O60674); assay: Kinase inhibition assay: JAK2; assay type: biochemical; parameters: truncated human FAK, RET, FLT3, JAK2, and LRRK2; purchased Carna Biosciences
# Procedure: as §3, §4, §5
# [3] = THP-1 cells, IgG stimulation, 0.3 μM, 18-hour incubation
# [4] = THP-1 cells, IgG stimulation, 1 μM, 18-hour incubation
# Sequence of JAK2 (O60674 826-1132 limits assumed): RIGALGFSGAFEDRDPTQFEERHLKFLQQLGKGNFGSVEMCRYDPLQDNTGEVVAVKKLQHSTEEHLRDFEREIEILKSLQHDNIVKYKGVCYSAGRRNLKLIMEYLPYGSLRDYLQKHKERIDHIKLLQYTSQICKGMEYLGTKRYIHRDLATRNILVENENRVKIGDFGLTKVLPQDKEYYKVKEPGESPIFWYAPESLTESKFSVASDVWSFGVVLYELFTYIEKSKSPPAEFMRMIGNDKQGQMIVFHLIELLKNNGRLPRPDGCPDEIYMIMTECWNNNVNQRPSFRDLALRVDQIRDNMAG
SMILES,"inhibition at 0.3 µM [1, 3] [%]","inhibition at 1 µM [1, 4] [%]",inhibition at 0.3 µM [2] [%],inhibition at 1 µM [2] [%],other results
"Cc1cc(C)cc(Nc2ncc(F)c(-n3cc(CN(C)C)c(C)n3)n2)c1 [Compound 77, 4-(4-((dimethylamino)methyl)-3-methyl-1H-pyrazol-1-yl)-N-(3,5-dimethylphenyl)-5-fluoropyrimidin-2-amine]",35.3,69.5,42.2,36,
"Cc1cc(Nc2nccc(-n3cc(CN4CC[C@@H](O)C4)c(C)n3)n2)cc(C)c1OCCN1CCCC1 [Compound 46, (R)-1-((1-(2-(3,5-dimethyl-4-(2-(pyrrolidin-1-yl)ethoxy)phenyl-amino)pyrimidin-4-yl)-3-methyl-1H-pyrazol-4-yl)methyl)pyrrolidin-3-ol]",,,,,IC50 (SYK): 5.9 nM
"COc1cc(Nc2ncc(C)c(-n3cc(C)c(CN4CC(OC(=O)C(C)(C)C)C4)c3)n2)cc(OC)c1OC [Compound 93, 1-((4-methyl-1-(5-methyl-2-(3,4,5-trimethoxyphenylamino)pyrimidin-4-yl)-1H-pyrrol-3-yl)methyl)azetidin-3-yl pivalate]",,,,,IC50 (RET): 76.1 nM; inhibition level compared with Vandetinib and Sunitinib (MV4-11 cells; FLT3 ITD induced cancer cell line (MV4-11)): greater than those exhibited by Vandetinib and Sunitinib; IC50 (MV4-11 cells): 0.6 nM; IC50 (FLT3): 11.7 nM; IC50 (JAK2): 219 nM
"Cc1cc(C)cc(Nc2ncc(F)c(-n3cc(C)c(CN(C)C)c3)n2)c1 [Compound 80, 4-(3-((dimethylamino)methyl)-4-methyl-1H-pyrrol-1-yl)-N-(3,5-dimethylphenyl)-5-fluoropyrimidin-2-amine]",51.5,91.1,8.2,12.5,
"C[C@@H]1C[C@H]2[C@@H]3CCC4=CC(=O)C=C[C@]4(C)[C@@]3(F)[C@@H](O)C[C@]2(C)[C@@]1(O)C(=O)CO [Dexamethasone, reference compound]",,,,68.4,
"COc1cc(Nc2ncc(C)c(-n3cc(C)c(CN4CCCNCC4)c3)n2)cc(OC)c1OC [Compound 96, 4-(3-((1,4-diazepan-1-yl)methyl)-4-methyl-1H-pyrrol-1-yl)-5-methyl-N-(3,4,5-trimethoxyphenyl)pyrimidin-2-amine trihydrochloride]",,,,,IC50 (RET): 10.1 nM; IC50 (MV4-11 cells): 12.5 nM; IC50 (FLT3): 0.53 nM; IC50 (JAK2): 3.9 nM
"Cc1cn(-c2ccnc(Nc3ccc4c(ccn4C)c3)n2)cc1CN1CC(O)C1 [Compound 52, 1-((4-methyl-1-(2-(1-methyl-1H-indol-5-ylamino)pyrimidin-4-yl)-1H-pyrrol-3-yl)methyl)azetidin-3-ol]",,,,,IC50 (SYK): 3.5 nM
"CCN(CC)CCNC(=O)c1c(C)[nH]c(/C=C2\C(=O)Nc3ccc(F)cc32)c1C [Sunitinib, reference compound]",,,,,IC50 (MV4-11 cells): 3.8 nM
"Cc1cc(C)cc(Nc2ncc(F)c(-n3ccc(CN(C)C)c3)n2)c1 [Compound 132, 4-(3-((dimethylamino)methyl)-1H-pyrrol-1-yl)-N-(3,5-dimethylphenyl)-5-fluoropyrimidin-2-amine]",85.9,94.5,3.1,8.2,percentage inhibition of TNF-α release compared with R406 ([1]; 0.3 μM): greater that those exhibited by R406
"Cc1cc(C)cc(Nc2ncc(F)c(-n3ccc(CN4CC[C@@H](O)C4)c3)n2)c1 [Compound 133, (R)-1-((1-(2-(3,5-dimethylphenyl-amino)-5-fluoropyrimidin-4-yl)-1H-pyrrol-3-yl)methyl)pyrrolidin-3-ol]",86.3,99.4,13.8,14.2,percentage inhibition of TNF-α release compared with R406 ([1]; 0.3 μM): greater that those exhibited by R406; also recorded: greater percentage inhibition
"COc1cc(Nc2ncc(F)c(Nc3ccc4c(n3)NC(=O)C(C)(C)O4)n2)cc(OC)c1OC [Compound R406, R406, reference compound]",,,,,"TNF-α Release Inhibition, IgG stimulation, At 0.3 μM [1, 3]: 49.9%; TNF-α Release Inhibition, IgG stimulation, At 1 μM [1, 4]: 87.4%"
